Drawing on PubChem BioAssay AID1259407 (Chemical Carcinogenesis Research Information System (CCRIS), 2018), this text covers mutagenic call for 7 compounds.

The subject of the data set is CCRIS mutagenicity, Ames/micronucleus/aberration tests. In words: CCRIS mutagenicity studies.
The mark [1] stands for this setting: Test System: MOUSE LYMPHOMA, Strain/Indicator: L5178Y (TK+/TK-), Metabolic Activation: NONE, Method: SUSPENSION/PLATE.
Where [2] appears, read: Test System: MOUSE LYMPHOMA, Strain/Indicator: L5178Y (TK+/TK-), Metabolic Activation: RAT, LIVER, S-9, AROCLOR 1254, Method: SUSPENSION/PLATE.
Where [3] appears, read: Test System: AMES SALMONELLA TYPHIMURIUM, Strain/Indicator: TA100, Metabolic Activation: NONE, Method: PREINCUBATION
Setting [4] is: Test System: AMES SALMONELLA TYPHIMURIUM, Strain/Indicator: TA104, Metabolic Activation: NONE, Method: PREINCUBATION
[5] abbreviates: Test System: AMES SALMONELLA TYPHIMURIUM, Strain/Indicator: TA98, Metabolic Activation: NONE, Method: PREINCUBATION

Activity calls are given as the source filed them. How the calls were made is not given here.

For `COS(=O)(=O)C(F)(F)F`, the mutagenic call (Test System: AMES SALMONELLA TYPHIMURIUM, Strain/Indicator: TA100, Metabolic Activation: HAMSTER, LIVER, S-9, AROCLOR 1254 (10%), Method: PREINCUBATION) was “active; positive”; the mutagenic call under setting [1] is “active; positive. reevaluation of results: positive”; the mutagenic call under setting [2] is “active; positive. reevaluation of results: positive”.

As for `[N-]=[N+]=NCc1ccccc1`, the mutagenic call reads like this: (End Point: IN VITRO CHROMOSOMAL ABERRATIONS, Test System: CHL CELLS, Metabolic Activation: NONE) “inactive; negative”; (End Point: IN VITRO CHROMOSOMAL ABERRATIONS, Test System: CHL CELLS, Metabolic Activation: RAT, LIVER, S-9, SODIUM PHENOBARBITAL AND 5,6-BENZOFLAVONE) “inactive; negative”; (Test System: AMES SALMONELLA TYPHIMURIUM, Strain/Indicator: TA100, Metabolic Activation: RAT, LIVER, S-9, PCB, Method: PREINCUBATION) “active; positive”.

For the compound `CCCC=O`, the mutagenic call reads like this: (End Point: IN VITRO CHROMOSOMAL ABERRATIONS, Test System: CHINESE HAMSTER OVARY CELLS, Metabolic Activation: NONE) “inactive; negative”; (End Point: IN VITRO CHROMOSOMAL ABERRATIONS, Test System: CHINESE HAMSTER OVARY CELLS, Metabolic Activation: RAT, LIVER, S-9, AROCLOR 1254) “inactive; negative”; (End Point: In vitro chromosomal aberrations, Test System: Chinese hamster lung (CHL/IU) cells, Metabolic Activation: Rat, Liver, S9, Phenobarbital and 5,6-benzoflavone) “active; positive (structural changes). ploidy not dose related”; under setting [3], “inactive; negative”; (Test System: AMES SALMONELLA TYPHIMURIUM, Strain/Indicator: TA100, Metabolic Activation: RAT LIVER S-9, AROCLOR 1254, Method: PREINCUBATION) “inactive; negative”; (Test System: AMES SALMONELLA TYPHIMURIUM, Strain/Indicator: TA102, Metabolic Activation: NONE, Method: PREINCUBATION) “inactive; negative”. For the same compound, the mutagenic call (Test System: AMES SALMONELLA TYPHIMURIUM, Strain/Indicator: TA102, Metabolic Activation: RAT LIVER S-9, AROCLOR 1254, Method: PREINCUBATION) was “inactive; negative”; the mutagenic call under setting [4] was “inactive; negative”; the mutagenic call (Test System: AMES SALMONELLA TYPHIMURIUM, Strain/Indicator: TA104, Metabolic Activation: RAT LIVER S-9, AROCLOR 1254, Method: PREINCUBATION) was “inactive; negative”; the mutagenic call (Test System: CHINESE HAMSTER V-79, Strain/Indicator: V-79/6-THIOGUANINE (HGPRT), Metabolic Activation: NONE, Method: REPLATING) is “active; positive”; the mutagenic call (Test System: CHINESE HAMSTER V-79, Strain/Indicator: V-79/OUABAIN (NA/K), Metabolic Activation: NONE, Method: REPLATING) is “active; positive”; the mutagenic call (Test System: UDS HUMAN HEPATOCYTES, Strain/Indicator: THY INCORP, Metabolic Activation: NONE, Method: AUTORADIOGRAPHY) was “inactive; negative”. For the setting “Test System: UDS RAT HEPATOCYTES, Strain/Indicator: THY INCORP, Metabolic Activation: NONE, Method: AUTORADIOGRAPHY”, the mutagenic call is “active; positive”.

Turning to `Nc1nc2cc(Cl)c(Cl)cc2s1`, the mutagenic call is, setting by setting: (Test System: AMES SALMONELLA TYPHIMURIUM, Strain/Indicator: TA98, Metabolic Activation: HAMSTER, LIVER, S-9, AROCLOR 1254, Method: STANDARD PLATE) “inactive; negative”; (Test System: AMES SALMONELLA TYPHIMURIUM, Strain/Indicator: TA98, Metabolic Activation: NONE, Method: STANDARD PLATE) “inactive; negative”; (Test System: AMES SALMONELLA TYPHIMURIUM, Strain/Indicator: TA98, Metabolic Activation: RAT, LIVER, S-9, AROCLOR 1254, Method: STANDARD PLATE) “inactive; negative”; (Test System: AMES SALMONELLA TYPHIMURIUM, Strain/Indicator: TA100, Metabolic Activation: HAMSTER, LIVER, S-9, AROCLOR 1254, Method: STANDARD PLATE) “inactive; negative”; (Test System: AMES SALMONELLA TYPHIMURIUM, Strain/Indicator: TA100, Metabolic Activation: NONE, Method: STANDARD PLATE) “inactive; negative”; (Test System: AMES SALMONELLA TYPHIMURIUM, Strain/Indicator: TA100, Metabolic Activation: RAT, LIVER, S-9, AROCLOR 1254, Method: STANDARD PLATE) “inactive; negative”. Moreover, the mutagenic call reads like this: (Test System: AMES SALMONELLA TYPHIMURIUM, Strain/Indicator: TA1535, Metabolic Activation: HAMSTER, LIVER, S-9, AROCLOR 1254, Method: STANDARD PLATE) “inactive; negative”; (Test System: AMES SALMONELLA TYPHIMURIUM, Strain/Indicator: TA1535, Metabolic Activation: NONE, Method: STANDARD PLATE) “inactive; negative”; (Test System: AMES SALMONELLA TYPHIMURIUM, Strain/Indicator: TA1535, Metabolic Activation: RAT, LIVER, S-9, AROCLOR 1254, Method: STANDARD PLATE) “inactive; negative”; (Test System: AMES SALMONELLA TYPHIMURIUM, Strain/Indicator: TA1537, Metabolic Activation: HAMSTER, LIVER, S-9, AROCLOR 1254, Method: STANDARD PLATE) “inactive; negative”; (Test System: AMES SALMONELLA TYPHIMURIUM, Strain/Indicator: TA1537, Metabolic Activation: NONE, Method: STANDARD PLATE) “inactive; negative”; (Test System: AMES SALMONELLA TYPHIMURIUM, Strain/Indicator: TA1537, Metabolic Activation: RAT, LIVER, S-9, AROCLOR 1254, Method: STANDARD PLATE) “inactive; negative”. In addition, the mutagenic call runs as follows: (Test System: AMES SALMONELLA TYPHIMURIUM, Strain/Indicator: TA1538, Metabolic Activation: HAMSTER, LIVER, S-9, AROCLOR 1254, Method: STANDARD PLATE) “inactive; negative”; (Test System: AMES SALMONELLA TYPHIMURIUM, Strain/Indicator: TA1538, Metabolic Activation: NONE, Method: STANDARD PLATE) “inactive; negative”; (Test System: AMES SALMONELLA TYPHIMURIUM, Strain/Indicator: TA1538, Metabolic Activation: RAT, LIVER, S-9, AROCLOR 1254, Method: STANDARD PLATE) “inactive; negative”; under setting [1], “inactive; negative. reevaluation of results: negative”; under setting [2], “inactive; negative. reevaluation of results: negative”.

As to `CCCCO[C@@H](CC)CO`, the mutagenic call under setting [5] was “inactive; negative”; the mutagenic call (Test System: AMES SALMONELLA TYPHIMURIUM, Strain/Indicator: TA98, Metabolic Activation: RAT LIVER S-9, PHENOBARBITAL AND BETA-NAPHTHOFLAVONE, Method: PREINCUBATION) is “inactive; negative”; the mutagenic call under setting [3] was “inactive; negative”; the mutagenic call (Test System: AMES SALMONELLA TYPHIMURIUM, Strain/Indicator: TA100, Metabolic Activation: RAT LIVER S-9, PHENOBARBITAL AND BETA-NAPHTHOFLAVONE, Method: PREINCUBATION) is “inactive; negative”; the mutagenic call (Test System: AMES SALMONELLA TYPHIMURIUM, Strain/Indicator: TA1535, Metabolic Activation: NONE, Method: PREINCUBATION) was “inactive; negative”; the mutagenic call (Test System: AMES SALMONELLA TYPHIMURIUM, Strain/Indicator: TA1535, Metabolic Activation: RAT LIVER S-9, PHENOBARBITAL AND BETA-NAPHTHOFLAVONE, Method: PREINCUBATION) is “inactive; negative”. Besides, the mutagenic call (Test System: AMES SALMONELLA TYPHIMURIUM, Strain/Indicator: TA1537, Metabolic Activation: NONE, Method: PREINCUBATION) was “inactive; negative”; the mutagenic call (Test System: AMES SALMONELLA TYPHIMURIUM, Strain/Indicator: TA1537, Metabolic Activation: RAT LIVER S-9, PHENOBARBITAL AND BETA-NAPHTHOFLAVONE, Method: PREINCUBATION) is “inactive; negative”; the mutagenic call (Test System: E.COLI, Strain/Indicator: WP2UVRA/PKM101, Metabolic Activation: NONE, Method: PREINCUBATION) is “inactive; negative”; the mutagenic call (Test System: E.COLI, Strain/Indicator: WP2UVRA/PKM101, Metabolic Activation: RAT LIVER S-9, PHENOBARBITAL AND BETA-NAPHTHOFLAVONE, Method: PREINCUBATION) is “inactive; negative”.

Regarding `O[C@H]1[C@H]2O[C@H]2c2c(c3ccccc3c3ccccc23)[C@@H]1O`, the mutagenic call reads like this: (Test System: AMES SALMONELLA TYPHIMURIUM, Strain/Indicator: TA97, Metabolic Activation: NONE, Method: PREINCUBATION) “active; positive”; under setting [5], “active; positive”; under setting [3], “active; positive”; under setting [4], “active; positive”; (Test System: CHINESE HAMSTER V-79, Strain/Indicator: V-79/6-THIOGUANINE, Metabolic Activation: NONE) “active; positive”.

With `COCC(=O)N(c1c(C)cccc1C)C(C)C(=O)OC` (stereo not drawn), the mutagenic call is “inactive; negative (positive only at 50 ug/ml dose)” (End Point: In vitro micronucleus, Test System: Human lymphocytes, Metabolic Activation: None) and “active; positive (at high dose)” (End Point: In vivo micronucleus, Test System: Bone marrow polychromatic erythrocytes, Species: Rat, Strain/Sex: Wistar/Male, Route: Oral).
